Consider one molecule from ChEMBL document CHEMBL6127064, “Discovery of GNE-6893, a Potent, Selective, Orally Bioavailable Small Molecule Inhibitor of HPK1” (ACS Med Chem Lett, 2024).

The nature of data set [1]: Selectivity ratio of IC50 for inhibition of TNIK (unknown origin) to Ki for inhibition of human full length HPK1-T165E/S171E mutant expressed in baculovirus expression system.
A short description of data set [2]: Apparent permeability of the compound across apical to basolateral side in dog MDCK1 cells at 10 uM by LC-MS/MS analysis. The data set is classed as ADME, cell-based, Canis lupus familiaris. As to conditions: MDCK.
A further data set addresses Aurora kinase B (Homo sapiens, UniProt Q96GD4). In words: Inhibition of Aurora kinase B (unknown origin).
In data set [3] the target is Leucine-rich repeat serine/threonine-protein kinase 2 (Homo sapiens, UniProt Q5S007). In words: Inhibition of LRRK2 (unknown origin).
A short description of data set [4]: Volume of distribution at steady state in C57BL/6 mouse at 25 mg/kg, po or 1 mg/kg, iv measured for 24 hrs by LC-MS/MS analysis. The class given is ADME, organism-based. As to conditions: in vivo.
A further data set deals with Hepatocyte. As to the kind of experiment: Cytotoxicity against human primary hepatocytes upto 100 uM. The data set is classed as toxicity, cell-based.
Data set [5] addresses Voltage-gated inwardly rectifying potassium channel KCNH2 (Homo sapiens, UniProt Q12809). In words: Inhibition of hERG. The data set is classed as toxicity. For orientation: Block of hERG is tested as a sign of cardiac risk.
The target in data set [6] is T1, Mitogen-activated protein kinase kinase kinase kinase 1 (Homo sapiens, UniProt Q92918). In words: Inhibition of HPK1 in human Jurkat cells assessed as inhibition of anti-CD3/anti-CD28-induced SLP76 phosporylation at Ser376 residue incubated for 30 mins by ELISA. The data set is classed as cell-based. (In general: In an ELISA, binding on a coated surface is turned into a signal by an enzyme label.)
T1 sequence (Q92918 whole entry): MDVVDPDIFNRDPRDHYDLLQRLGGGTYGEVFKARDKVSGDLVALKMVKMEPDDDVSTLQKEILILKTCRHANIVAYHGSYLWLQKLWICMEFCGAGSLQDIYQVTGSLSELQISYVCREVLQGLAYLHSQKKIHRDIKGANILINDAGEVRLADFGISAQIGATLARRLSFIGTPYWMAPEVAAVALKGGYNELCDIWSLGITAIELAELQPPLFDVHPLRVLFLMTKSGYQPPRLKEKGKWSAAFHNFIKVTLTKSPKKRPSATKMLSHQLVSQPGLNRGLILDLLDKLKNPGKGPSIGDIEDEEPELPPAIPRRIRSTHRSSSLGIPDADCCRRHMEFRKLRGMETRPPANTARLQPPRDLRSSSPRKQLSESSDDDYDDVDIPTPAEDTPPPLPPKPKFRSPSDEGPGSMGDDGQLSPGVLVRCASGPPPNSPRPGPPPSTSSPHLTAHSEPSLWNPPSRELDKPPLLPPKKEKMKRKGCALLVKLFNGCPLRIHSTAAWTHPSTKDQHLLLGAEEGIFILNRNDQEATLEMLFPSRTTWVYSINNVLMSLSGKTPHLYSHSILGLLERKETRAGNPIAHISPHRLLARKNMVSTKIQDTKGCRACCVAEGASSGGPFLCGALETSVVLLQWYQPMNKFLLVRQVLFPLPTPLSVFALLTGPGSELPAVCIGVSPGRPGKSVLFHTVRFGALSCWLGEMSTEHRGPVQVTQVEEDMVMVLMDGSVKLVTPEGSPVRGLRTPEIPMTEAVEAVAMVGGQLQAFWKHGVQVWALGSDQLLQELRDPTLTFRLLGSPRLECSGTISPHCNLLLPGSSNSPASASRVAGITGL

The target in data set [7] is T2, D(4) dopamine receptor (Homo sapiens) (UniProt P21917).
T2 sequence (whole entry): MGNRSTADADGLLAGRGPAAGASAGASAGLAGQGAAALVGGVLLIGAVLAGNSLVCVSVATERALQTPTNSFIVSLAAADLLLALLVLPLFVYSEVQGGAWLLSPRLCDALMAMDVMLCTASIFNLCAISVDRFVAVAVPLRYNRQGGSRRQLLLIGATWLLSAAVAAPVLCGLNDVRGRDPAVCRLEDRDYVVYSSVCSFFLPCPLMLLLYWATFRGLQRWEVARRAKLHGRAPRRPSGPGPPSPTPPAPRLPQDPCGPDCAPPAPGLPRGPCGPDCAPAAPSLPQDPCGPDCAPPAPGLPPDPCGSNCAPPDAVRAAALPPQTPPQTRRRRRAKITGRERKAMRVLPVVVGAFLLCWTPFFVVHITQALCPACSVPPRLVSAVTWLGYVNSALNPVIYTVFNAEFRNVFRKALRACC
As to the kind of experiment: Inhibition of dopamine D4 receptor (unknown origin) at 10 uM.

Data set [8] has as its target TRAF2 and NCK-interacting protein kinase (Homo sapiens, UniProt Q9UKE5). As to the kind of experiment: Inhibition of TNIK (unknown origin).
Data set [9] in a line: Half life in Sprague-Dawley rat at 0.5 mg/kg, iv measured for 8 hrs by LC-MS/MS analysis. As to conditions: in vivo. The data set is classed as ADME, organism-based.
The nature of data set [10]: Protein binding in cynomolgus monkey plasma. The class given is ADME, cell-free, Macaca fascicularis. As to conditions: read-out: PPB (converted).
Data set [11] concerns the target T1, Mitogen-activated protein kinase kinase kinase kinase 1. In words: Inhibition of HPK1 in primary human Pan T cells assessed as increase in IL-2 secretion pretreated for 30 mins followed by incubation with anti-CD3/anti-CD28 and measured after 4 hrs by MSD assay. The data set is classed as cell-based, T cell.
Data set [12] in a line: Volume of distribution at steady state in Sprague-Dawley rat at 0.5 mg/kg, iv measured for 8 hrs by LC-MS/MS analysis. The data set is classed as ADME, organism-based. As to conditions: in vivo, read-out: Vdss.
Data set [13] in a line: Oral bioavailability in C57BL/6 mouse at 25 mg/kg measured for 24 hrs by LC-MS/MS analysis. The data set is classed as ADME, organism-based. As to conditions: C57BL/6, mouse, in vivo.
Data set [14] addresses Mitogen-activated protein kinase kinase kinase kinase 4 (Homo sapiens, UniProt O95819). As to the kind of experiment: Inhibition of MAP4K4 (unknown origin).
The nature of data set [15]: Volume of distribution at steady state in Beagle dog at 0.5 mg/kg, po or 0.5 mg/kg, iv measured for 24 hrs by LC/MS/MS analysis. The class given is ADME, organism-based, Canis lupus familiaris. As to conditions: in vivo.
Data set [16] in a line: Selectivity ratio of IC50 for inhibition of GCK (unknown origin) to Ki for inhibition of human full length HPK1-T165E/S171E mutant expressed in baculovirus expression system.
Data set [17] is described as follows: Half life in C57BL/6 mouse at 25 mg/kg, po or 1 mg/kg, iv measured for 24 hrs by LC-MS/MS analysis. The class given is ADME, organism-based. Conditions: in vivo.

Voltage-gated inwardly rectifying potassium channel KCNH2, sequence (Q12809 whole entry): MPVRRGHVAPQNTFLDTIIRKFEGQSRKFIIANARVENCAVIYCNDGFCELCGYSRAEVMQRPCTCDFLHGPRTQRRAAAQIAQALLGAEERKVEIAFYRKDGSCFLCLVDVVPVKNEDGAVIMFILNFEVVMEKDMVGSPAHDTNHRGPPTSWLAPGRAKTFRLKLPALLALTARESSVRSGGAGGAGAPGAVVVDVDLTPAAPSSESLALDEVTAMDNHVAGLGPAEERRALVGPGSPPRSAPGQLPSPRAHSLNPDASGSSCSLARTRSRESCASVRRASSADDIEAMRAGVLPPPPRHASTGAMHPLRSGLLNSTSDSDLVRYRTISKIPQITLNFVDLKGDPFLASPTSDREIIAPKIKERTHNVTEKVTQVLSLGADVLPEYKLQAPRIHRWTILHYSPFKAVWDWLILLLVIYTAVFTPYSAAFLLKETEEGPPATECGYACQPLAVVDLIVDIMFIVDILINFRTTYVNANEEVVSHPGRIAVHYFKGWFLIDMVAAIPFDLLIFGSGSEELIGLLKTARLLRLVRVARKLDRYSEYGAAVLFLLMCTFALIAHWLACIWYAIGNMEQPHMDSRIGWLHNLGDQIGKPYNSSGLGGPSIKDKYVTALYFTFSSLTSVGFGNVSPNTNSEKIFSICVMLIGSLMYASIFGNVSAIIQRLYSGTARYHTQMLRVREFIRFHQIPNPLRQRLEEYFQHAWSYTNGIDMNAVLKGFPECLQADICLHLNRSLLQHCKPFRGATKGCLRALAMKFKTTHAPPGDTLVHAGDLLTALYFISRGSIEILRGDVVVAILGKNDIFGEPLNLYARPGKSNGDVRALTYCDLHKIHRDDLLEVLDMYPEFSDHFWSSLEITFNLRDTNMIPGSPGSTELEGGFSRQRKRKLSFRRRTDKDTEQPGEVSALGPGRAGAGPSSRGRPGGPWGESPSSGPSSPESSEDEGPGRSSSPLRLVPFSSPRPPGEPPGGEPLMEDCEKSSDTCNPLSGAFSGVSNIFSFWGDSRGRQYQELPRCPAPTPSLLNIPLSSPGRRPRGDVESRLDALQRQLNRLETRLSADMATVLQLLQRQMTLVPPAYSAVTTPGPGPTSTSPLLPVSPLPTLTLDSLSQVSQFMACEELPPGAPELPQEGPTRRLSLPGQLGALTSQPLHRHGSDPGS
Mitogen-activated protein kinase kinase kinase kinase 4, sequence (O95819 whole entry): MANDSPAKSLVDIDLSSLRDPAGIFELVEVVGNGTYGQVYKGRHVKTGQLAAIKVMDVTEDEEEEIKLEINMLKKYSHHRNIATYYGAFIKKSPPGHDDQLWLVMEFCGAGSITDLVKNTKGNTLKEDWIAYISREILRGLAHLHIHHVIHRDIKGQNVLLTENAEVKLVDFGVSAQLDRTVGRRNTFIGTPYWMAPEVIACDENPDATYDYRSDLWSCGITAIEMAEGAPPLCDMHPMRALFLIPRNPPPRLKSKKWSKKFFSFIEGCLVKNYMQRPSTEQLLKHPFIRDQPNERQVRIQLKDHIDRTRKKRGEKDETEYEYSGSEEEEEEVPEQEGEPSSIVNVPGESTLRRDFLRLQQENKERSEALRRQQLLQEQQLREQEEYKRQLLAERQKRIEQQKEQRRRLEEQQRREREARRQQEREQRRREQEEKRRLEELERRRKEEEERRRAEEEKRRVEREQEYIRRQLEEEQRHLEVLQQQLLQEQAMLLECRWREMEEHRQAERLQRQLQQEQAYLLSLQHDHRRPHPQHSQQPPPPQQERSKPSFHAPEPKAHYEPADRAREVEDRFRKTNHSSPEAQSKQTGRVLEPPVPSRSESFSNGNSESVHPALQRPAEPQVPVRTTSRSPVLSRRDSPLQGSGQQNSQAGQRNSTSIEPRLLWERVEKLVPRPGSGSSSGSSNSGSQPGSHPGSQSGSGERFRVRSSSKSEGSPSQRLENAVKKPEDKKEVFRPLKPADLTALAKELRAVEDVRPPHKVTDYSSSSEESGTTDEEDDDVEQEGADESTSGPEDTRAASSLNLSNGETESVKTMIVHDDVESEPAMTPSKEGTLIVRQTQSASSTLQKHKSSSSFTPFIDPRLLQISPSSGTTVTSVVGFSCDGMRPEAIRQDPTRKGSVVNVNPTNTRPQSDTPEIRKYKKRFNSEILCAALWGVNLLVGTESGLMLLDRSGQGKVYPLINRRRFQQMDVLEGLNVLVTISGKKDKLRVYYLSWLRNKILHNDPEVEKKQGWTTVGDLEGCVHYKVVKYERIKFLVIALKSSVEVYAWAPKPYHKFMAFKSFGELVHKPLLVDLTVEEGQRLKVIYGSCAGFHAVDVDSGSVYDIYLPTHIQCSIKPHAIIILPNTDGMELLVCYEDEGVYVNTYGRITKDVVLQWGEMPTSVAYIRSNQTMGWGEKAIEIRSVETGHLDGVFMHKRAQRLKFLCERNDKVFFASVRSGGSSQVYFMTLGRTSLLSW
TRAF2 and NCK-interacting protein kinase, sequence (Q9UKE5 whole entry): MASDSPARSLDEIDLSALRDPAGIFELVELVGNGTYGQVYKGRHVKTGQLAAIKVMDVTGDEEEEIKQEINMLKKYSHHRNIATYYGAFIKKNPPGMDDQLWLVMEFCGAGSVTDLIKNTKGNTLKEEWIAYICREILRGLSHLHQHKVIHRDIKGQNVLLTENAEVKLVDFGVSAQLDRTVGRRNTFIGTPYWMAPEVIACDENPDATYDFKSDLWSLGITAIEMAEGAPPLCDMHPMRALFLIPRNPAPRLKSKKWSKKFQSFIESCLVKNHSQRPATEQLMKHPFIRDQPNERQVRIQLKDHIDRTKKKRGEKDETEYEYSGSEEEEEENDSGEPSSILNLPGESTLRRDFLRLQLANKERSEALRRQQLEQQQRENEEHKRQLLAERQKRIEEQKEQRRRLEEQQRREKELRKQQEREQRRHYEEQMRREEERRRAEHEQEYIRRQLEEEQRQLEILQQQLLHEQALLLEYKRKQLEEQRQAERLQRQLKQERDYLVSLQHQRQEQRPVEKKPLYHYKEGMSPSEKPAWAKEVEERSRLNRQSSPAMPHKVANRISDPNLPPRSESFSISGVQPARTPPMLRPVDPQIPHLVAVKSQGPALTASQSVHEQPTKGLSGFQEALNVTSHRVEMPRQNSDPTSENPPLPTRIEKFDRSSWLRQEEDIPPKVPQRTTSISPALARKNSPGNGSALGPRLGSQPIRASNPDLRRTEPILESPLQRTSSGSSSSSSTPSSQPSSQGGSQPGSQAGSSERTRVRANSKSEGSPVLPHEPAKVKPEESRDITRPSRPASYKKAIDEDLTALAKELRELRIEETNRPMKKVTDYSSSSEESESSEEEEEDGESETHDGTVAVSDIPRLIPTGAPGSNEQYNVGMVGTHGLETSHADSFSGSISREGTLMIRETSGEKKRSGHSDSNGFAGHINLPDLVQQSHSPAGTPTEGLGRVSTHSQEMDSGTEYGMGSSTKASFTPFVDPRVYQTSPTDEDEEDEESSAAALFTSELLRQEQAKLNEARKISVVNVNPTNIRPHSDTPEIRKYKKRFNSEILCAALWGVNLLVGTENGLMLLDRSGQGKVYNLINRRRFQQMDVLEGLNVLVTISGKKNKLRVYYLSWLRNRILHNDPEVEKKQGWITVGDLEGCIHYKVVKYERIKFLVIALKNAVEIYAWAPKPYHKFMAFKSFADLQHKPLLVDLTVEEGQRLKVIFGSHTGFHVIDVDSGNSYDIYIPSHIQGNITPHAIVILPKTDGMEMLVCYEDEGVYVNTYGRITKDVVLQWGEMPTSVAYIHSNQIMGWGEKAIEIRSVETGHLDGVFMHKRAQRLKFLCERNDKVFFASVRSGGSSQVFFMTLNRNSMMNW
Aurora kinase B, sequence (Q96GD4 whole entry): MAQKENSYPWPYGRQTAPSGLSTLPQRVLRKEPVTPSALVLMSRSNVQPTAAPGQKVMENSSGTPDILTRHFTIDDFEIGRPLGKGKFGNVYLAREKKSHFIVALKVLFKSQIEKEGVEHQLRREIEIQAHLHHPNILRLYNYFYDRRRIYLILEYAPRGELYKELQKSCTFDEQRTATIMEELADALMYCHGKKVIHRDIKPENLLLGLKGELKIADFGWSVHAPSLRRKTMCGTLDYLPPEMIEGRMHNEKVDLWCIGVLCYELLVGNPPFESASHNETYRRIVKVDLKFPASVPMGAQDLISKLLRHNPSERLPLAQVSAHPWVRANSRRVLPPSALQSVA

Regarding `Cc1c(-c2cc3cc(NC(=O)O[C@H]4COC[C@@H]4C)ncc3c(N)c2F)cnc2c1NCCO2`, the Ratio in data set [1] is over 120; in [16], over 69. Moreover, the Papp A→B at 10 µM in data set [2] was 15 ×10⁻⁶ cm/s. Besides, the IC50 amounted to 46 nM at Aurora kinase B; 31 nM in [3]; 28000 nM in [5]; 44 nM in [6]; 2.3 nM in data set [8]; 3.3 nM in data set [14]. Further, the Vdss in [4] stood at 1.8 L/kg; in data set [15] it was 2.2 L/kg. Further, the Activity entry in the data set on Hepatocyte is given as “Non-Toxic”. This molecule also registered an inhibition in data set [7] of 50%. The half-life in [9] was 1.3 h; in data set [17] it was 1.7 h. Also, in data set [10], the fraction unbound was 0.116. For the same molecule, the EC50 in [11] is 6.4 nM. Also, the Vd in [12] stood at 2.2 L/kg. This molecule also came in with a bioavailability in [13] of 37%.

A word on the Papp A→B: it is the apparent permeability from the apical to the basolateral side of a cell layer. The term IC50 denotes the midpoint of a concentration-inhibition curve. Usually inhibition stands for the share of the control response that was lost under treatment. The half-life is how long it takes for the measured level to halve. Broadly, the EC50 is the concentration giving half of the maximal effect. One may read the bioavailability as the share of a dose that reaches the circulation, judged against a reference dose that is usually intravenous.
